In patent EP2951180B1, “2,6,7,8 SUBSTITUTED PURINES AS HDM2 INHIBITORS” (Merck Sharp & Dohme Corp., priority 2013, dated 2014) one finds IC50 data, which are given here for 21 compounds.

SMILES strings stand for the structures.

The target of one assay is T1, HDM2 (Homo sapiens, UniProt Q00987).
T1 construct: Thioredoxin (N); made in house; host or cells: E. coli strain BL21(DE3)Rosetta
T1 sequence (Q00987 17-125): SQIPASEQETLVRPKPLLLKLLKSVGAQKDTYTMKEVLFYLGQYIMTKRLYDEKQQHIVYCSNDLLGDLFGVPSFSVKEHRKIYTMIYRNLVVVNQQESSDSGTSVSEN
The experiment in a line: FRET assay (HDM2 inhibition; method not described in this part). Type of assay: binding. Conditions: Table 1.
In general, IC50 refers to the midpoint of a concentration-inhibition curve. On to `CC(C)c1cc(-c2nc3nc(C(=O)O)nc(N[C@H](C)C4CCC4)c3n2Cc2ccc(C(F)(F)F)cc2)ncc1F` [Example 1.10, (R)-6-((1-cyclobutylethyl)amino)-8-(5-fluoro-4-isopropylpyridin-2-yl)-7-(4-(trifluoromethyl)benzyl)-7H-purine-2-carboxylic acid], for which half-maximal inhibition (IC50) required 0.00396 µM. Same read-out and setting: the value for `Cc1cc(-c2nc3nc(C(=O)O)nc(N[C@H](C)C4CC4)c3n2Cc2ccc(C(F)(F)F)cc2)ccn1` [Example 1.118, 6-{[(1R)-1-cyclopropylethyl]amino} -8-(2-methylpyridin-4-yl)-7-[4-(trifluoromethyl)benzyl]-7H-purine-2-carboxylic acid] was 1.37 µM.

`COc1ccc(-c2nc3nc(C(=O)O)nc(N[C@H](C)C4CCC4)c3n2Cc2ccc(C(F)(F)F)cc2)c(F)c1` [Example 1.136, 6-{[(1R)-1-cyclobutylethyl]amino}-8-(2-fluoro-4-methoxyphenyl)-7-[4-(trifluoromethyl)benzyl]-7H-purine-2-carboxylic acid] displayed an IC50 of 0.125 µM. Same read-out and setting: the value for `C[C@@H](Nc1nc(C(=O)O)nc2nc(-c3ccccc3)n(Cc3ccc(C(F)(F)F)cc3)c12)C1CC1` [Example 1.96, 6-{[(1R)-1-cyclopropylethyl]amino} -8-phenyl-7-[4-(trifluoromethyl)benzyl]-7H-purine-2-carboxylic acid] was 0.371 µM; that for `C[C@@H](Nc1nc(C(=O)O)nc2nc(-c3cc(C(F)F)cc(C(F)F)n3)n(Cc3ccc(C(F)(F)F)cc3)c12)C1CCC1` [Example 1.64, 8-[4,6-bis(difluoromethyl)pyridin-2-yl]-6-{[(1R)-1-cyclobutylethyl]amino}-7-[4-(trifluoromethyl)benzyl] - 7H-purine-2-carboxylic acid] was 0.0229 µM; that for `C[C@@H](Nc1nc(C(=O)O)nc2nc(-c3cc(N(C)C)ccc3O)n(Cc3ccc(C(F)(F)F)cc3)c12)C1CCC1` [Example 1.42, 6-{[(1R)-1-cyclobutylethyl]amino}-8-[5-(dimethylamino)-2-hydroxyphenyl]-7-[4-(trifluoromethyl)benzyl]-7H-purine-2-carboxylic acid] was 0.077 µM. Still for that read-out and setting: the value for `C[C@@H](Nc1nc(C(=O)O)nc2nc(-c3cc(Cl)ccn3)n(Cc3ccc(C(F)(F)F)cc3)c12)C1CCC1` [Example 1.44, 8-(4-chloropyridin-2-yl)-6-{[(1R)-1-cyclobutylethyl]amino}-7-[4-(trifluoromethyl)benzyl] - 7H-purine-2-carboxylic acid] was 0.0165 µM. On the same count and under the same terms, the value for `COc1ccc2cc(-c3nc4nc(C(=O)O)nc(N[C@H](C)C5CCC5)c4n3Cc3ccc(C(F)(F)F)cc3)ccc2c1` [Example 1.133, 6-{[(1R)-1-cyclobutylethyl]amino}-8-(6-methoxynaphthalen-2-yl)-7-[4-(trifluoromethyl)benzyl]-7H-purine-2-carboxylic acid] was 0.0733 µM; that for `COc1ccc(C)cc1-c1nc2nc(C(=O)O)nc(N[C@H](C)C3CCC3)c2n1Cc1ccc(C(F)(F)F)cc1` [Example 1.119, 6-{[(1R)-1-cyclobutylethyl]amino}-8-(2-methoxy-5-methylphenyl)-7-[4-(trifluoromethyl)benzyl]-7H-purine-2-carboxylic acid] was 0.00997 µM; that for `C[C@@H](Nc1nc(C(=O)O)nc2nc(-c3cc(C4CCC4)ccn3)n(Cc3ccc(C(F)(F)F)cc3)c12)C1CCC1` [Example 1.54] was 0.00561 µM. For the compound `Cc1cc(C)cc(-c2nc3nc(C(=O)O)nc(N[C@H](C)C4CCC4)c3n2Cc2ccc(C(F)(F)F)cc2)c1` [Example 1.131, 6-{[(1R)-1-cyclobutylethyl]amino}-8-(3,5-dimethylphenyl)-7-[4-(trifluoromethyl)benzyl]-7H-purine-2-carboxylic acid], the midpoint of inhibition, the IC50, lay at 0.369 µM. In turn, `Cc1cc2ncccc2cc1-c1nc2nc(C(=O)O)nc(N[C@H](C)C3CC3)c2n1Cc1ccc(C(F)(F)F)cc1` [Example 1.25, 6-{[(1R)-1-cyclopropylethyl]amino} -8-(7-methylquinolin-6-yl)-7-[4-(trifluoromethyl)benzyl]-7H-purine-2-carboxylic acid] registered an IC50 of 1.07 µM. Same read-out and setting: with `C[C@@H](Nc1nc(C(=O)O)nc2nc(-c3cc(C4CC4)ccn3)n(Cc3ccc(C(F)(F)F)cc3)c12)C1CCC1` [Example 1.51, 6-{[(1R)-1-cyclobutylethyl]amino}-8-(4-cyclopropylpyridin-2-yl)-7-[4-(trifluoromethyl)benzyl]-7H-purine-2-carboxylic acid] the figure was 0.00839 µM; with `CC(C)c1ccnc(-c2nc3nc(C(=O)O)nc(N(C)[C@H](C)C4CCC4)c3n2Cc2ccc(C(F)(F)F)c(F)c2)c1` [Example 1.13, (R)-6-((1-cyclobutylethyl)(methyl)amino)-7-(3-fluoro-4-(trifluoromethyl)benzyl)-8-(4-isopropylpyridin-2-yl)-7H-purine-2-carboxylic acid], 0.158 µM.

The compound `CCOc1ccc(C(C)C)cc1-c1nc2nc(C(=O)O)nc(N[C@H](C)C3CCC3)c2n1Cc1ccc(C(F)(F)F)cc1` [Example 1.12, (R)-6-((1-cyclobutylethyl)amino)-8-(2-ethoxy-5-isopropylphenyl)-7-(4-(trifluoromethyl)benzyl)-7H-purine-2-carboxylic acid] displayed an IC50 of 0.0294 µM.

The same assay, now with this note: Table 2.
As for `C[C@@H](Nc1nc(C(=O)O)nc2nc(-c3ccc4ccccc4c3)n(Cc3ccc(C(F)(F)F)cc3)c12)C1CC1` [Example 2.60, 6-{[(1R)-1-cyclopropylethyl]amino}-8-naphthalen-2-yl-7-[4-(trifluoromethyl)benzyl]-7H-purine-2-carboxylic acid], the IC50 came to 0.306 µM. On the same count and under the same terms, the value for `COc1cc(-c2nc3nc(C(=O)O)nc(N[C@H](C)C4CC4)c3n2Cc2ccc(C(F)(F)F)cc2)ccn1` [Example 2.71, 6-{[(1R)-1-cyclopropylethyl]amino}-8-(2-methoxypyridin-4-yl)-7-[4-(trifluoromethyl)benzyl]-7H-purine-2-carboxylic acid] was 0.589 µM; that for `Cc1noc(C)c1-c1nc2nc(C(=O)O)nc(N[C@H](C)C3CCC3)c2n1Cc1ccc(C(F)(F)F)cc1` [Example 2.84, 6-{[(1R)-1-cyclobutylethyl]amino} -8-(3,5-dimethylisoxazol-4-yl)-7-[4-(trifluoromethyl)benzyl] - 7H-purine-2-carboxylic acid] was 0.0794 µM.

The assay is the same for the next values; noted with them: Table 3.
For `Cc1cnc(-c2nc3nc(C(=O)O)nc(N[C@H](C)C4CCC4)c3n2Cc2ccc(C(F)(F)F)cc2)s1` [Example 3.7, 6-{[(1R)-1-cyclobutylethyl]amino}-8-(5-methyl-1,3-thiazol-2-yl)-7-[4-(trifluoromethyl)benzyl] -7H-purine-2-carboxylic acid], the IC50 turned out to be 0.042 µM.

The compound `CC(C)c1ccnc(-c2nc3nc(C(=O)O)nc(N[C@H](C)C4CCC4)c3n2Cc2ccc(C(F)(F)F)cc2)n1` [Example 3.2, (R)-6-((1-cyclobutylethyl)amino)-8-(4-isopropylpyrimidin-2-yl)-7-(4-(trifluoromethyl)benzyl)-7H-purine-2-carboxylic acid] showed an IC50 of 0.022 µM.

Staying with this assay, now noted: Table 4.
The compound `Cc1ccc(OCCC(=O)NCCO)c(-c2nc3nc(C(=O)O)nc(N[C@H](C)C4CC4)c3n2Cc2ccc(Cl)cc2)c1` [Example 4.12, (R)-7-(4-chlorobenzyl)-6-((1-cyclopropylethyl)amino)-8-(2-(3-((2-hydroxyethyl)amino)-3-oxopropoxy)-5-methylphenyl)-7H-purine-2-carboxylic acid] gave an IC50 of 0.348 µM.
